Assay results taken from ChEMBL document CHEMBL1158256, “Betulinans A and B, two benzoquinone compounds from Lenzites betulina” (J Nat Prod, 1996).
In brackets after ≈: the same amount, converted by molar mass.

Each compound was assayed on Liver microsomes (assay: Inhibition of lipid peroxidation in rat liver microsomes).
Assay type: functional, Microsome

| Compound | IC50 |
| --- | --- |
| VITAMIN E | 1.68 µg/mL |
| COC1=C(c2ccccc2)C(=O)C2=C(C1=O)c1ccccc1CO2 [BETULINAN B] | 2.88 µg/mL (≈ 9.05 µM) |
| COC1=C(c2ccccc2)C(=O)C(OC)=C(c2ccccc2)C1=O [BETULINAN A] | 0.46 µg/mL (≈ 1.44 µM) |
